Test results as given in patent US10463671B2, “Combination therapy for treating cancer” (Epizyme, Inc., priority 2013, dated 2019).
Read-outs that look alike come from different tables or passages of the source. Marks after values point to notes of the source that are not given here.

Columns and labels:
SU-DHL-5 cells = assay: Medium throughput combination proliferation assay (CellTiter-Glo, Chou-Talalay CI / potency shift); conditions: for IC50: Homo sapiens, SU-DHL-5, 72 h, read-out: Potency (IC50); for 1/α: combination with Compound 44
OCI-LY19 cells = assay: as above; conditions: for IC50: Homo sapiens, OCI-LY19, 72 h, read-out: Potency (IC50); for 1/α: OCI-LY19, combination with Compound 44
WSU-DLCL2 cells = assay: as above; conditions: for IC50: Homo sapiens, WSUDLCL2, 72 h, read-out: Potency (IC50); for Summary of Combinations with Compound 44: WSU-DLCL2 (EZH2 Mutant GCB), drug combined with Compound 44; for growth inhibition by the drug by itself: WSU-DLCL2 (EZH2 mutant); for 1/α: combination with Compound 44
SU-DHL-10 cells = assay: as above; conditions: for IC50: read-out: Potency (IC50), SU-DHL-10 (GCB sub-type EZH2 Y646F), after 3 days of dosing; for IC50 / growth inhibition by the drug by itself: single agent; for Summary of Combinations with Compound 44: SU-DHL10 (EZH2 Mutant GCB), drug combined with Compound 44; for CI range (combination index) / 1/α: SU-DHL-10; for CI range (combination index): combination with Compound 44 at constant ratio, CI range above Fractional effect of 0.5; for 1/α: combination with Compound 44; for growth inhibition by the drug by itself: SU-DHL10 (EZH2 mutant)
Toledo cells = assay: as above; conditions: for 1/α / IC50: Toledo; for 1/α: combination with Compound 44; for IC50: read-out: Potency (IC50), single agent, dosed for 5 days; for Summary of Combinations with Compound 44: Toledo (EZH2 WT GCB), drug combined with Compound 44
DOHH2 cells = assay: as above; conditions: for 1/α: DOHH2, combination with Compound 44, data normalized to individual 6438 concentrations instead of DMSO; for IC50: read-out: Potency (IC50), DOHH-2 (GCB sub-type WT EZH2), single agent, after 3 days of dosing; for Summary of Combinations with Compound 44: DOHH2 (EZH2 WT GCB), drug combined with Compound 44
SU-DHL6 cells = assay: as above; assay type: cell-based; conditions: SU-DHL6 (EZH2 Mutant GCB); drug combined with Compound 44
H3K27Me3 levels = conditions: single agent, four day treatment
[1] = test system: Sestrin 1 (SESN1), TNF and GILZ expression; conditions: all cell lines; 4 days
Method: Gene expression was normalized to array's B2M and fold change compared to DMSO was calculated using the ΔΔCt method.

H3K27 acetylation levels = conditions: WSU-DLCL2, OCI-LY19, RL cells; 4 days
Method: Acid extracted histones were analyzed by western blot for H3K27 acetylation levels.

Row | IC50 (SU-DHL-5 cells) | IC50 (OCI-LY19 cells) | IC50 (SU-DHL-10 cells) | Compound | 1/α (OCI-LY19 cells) | IC50 (WSU-DLCL2 cells) | 1/α (Toledo cells) | IC50 (Toledo cells) | 1/α (DOHH2 cells) | IC50 (DOHH2 cells) | Summary of Combinations with Compound 44 (WSU-DLCL2 cells) | Summary of Combinations with Compound 44 (SU-DHL-10 cells) | other results
1 | 4 nM | 12 nM | 8.6 nM | CC(C)C[C@H](NC(=O)[C@H](Cc1ccccc1)NC(=O)c1cnccn1)B(O)O [Bortezomib] | 1.67 | 6.5 nM | 0.96 | 4.3 nM | 0.96 | 6.6 nM |  |  | 
2 | 3760 nM | > 10000 nM | 2210 nM | COc1cc(Nc2ncc(F)c(Nc3ccc4c(n3)NC(=O)C(C)(C)O4)n2)cc(OC)c1OC [Tamatinib] | No effect | 3420 nM | No effect | 3200 nM | 0.81 | 1210 nM | very strong synergy | very strong synergy | 
3 | > 10000 nM | > 10000 nM | > 10000 nM | CC(=O)Nc1cccc(-n2c(=O)n(C3CC3)c(=O)c3c(Nc4ccc(I)cc4F)n(C)c(=O)c(C)c32)c1 [Trametinib] | No effect | 8610 nM | No effect | > 10000 nM |  | > 10000 nM |  |  | 
4 | > 10000 nM | 53 nM | 3040 nM | CC1(C)CCC(CN2CCN(c3ccc(C(=O)NS(=O)(=O)c4ccc(NCC5CCOCC5)c([N+](=O)[O-])c4)c(Oc4cnc5[nH]ccc5c4)c3)CC2)=C(c2ccc(Cl)cc2)C1 [ABT-199] | 4.20 | 1940 nM |  | 190 nM |  | 77 nM |  |  | 1/α (SU-DHL-5 cells; SU-DHL-5): No Effect; CI range (combination index) (SU-DHL-10 cells): 1.2-1.4^e
5 | 2590 nM | > 10000 nM | 8430 nM | CC[C@H](Nc1ncnc2[nH]cnc12)c1nc2cccc(F)c2c(=O)n1-c1ccccc1 [Idelalisib] | No effect | 2050 nM | 1.1^ | 9800 nM | 0.59 | 2980 nM | very strong synergy | very strong synergy | 
6 | 3.4 nM | 79 nM | > 100 nM | C[C@@H]1C[C@H]2[C@@H]3CCC4=CC(=O)C=C[C@]4(C)[C@@]3(F)[C@@H](O)C[C@]2(C)[C@@]1(O)C(=O)CO [Dexamethasone] | 7.7 | > 10000 nM | No effect | > 100 nM | 4.2 | 5.6 nM |  |  | 1/α (SU-DHL-10 cells): 3.7; Summary of Combinations with Compound 44 (Toledo cells): No effect
7 |  |  |  | COc1cccc2c1C(=O)c1c(O)c3c(c(O)c1C2=O)C[C@@](O)(C(=O)CO)C[C@@H]3O[C@H]1C[C@H](N)[C@H](O)[C@H](C)O1 [Doxorubicin] |  |  |  |  |  |  | Synergy | Additive | growth inhibition by the drug by itself (WSU-DLCL2 cells; single agent): concentration-dependent growth inhibition; Summary of Combinations with Compound 44 (SU-DHL6 cells): Additive; growth inhibition by the drug by itself (SU-DHL-10 cells): concentration-dependent growth inhibition; Summary of Combinations with Compound 44 (Toledo cells): No effect; Summary of Combinations with Compound 44 (DOHH2 cells): No effect
8 | 162 nM | 304 nM | 275 nM | NC1(c2ccc(-c3nc4ccn5c(=O)[nH]nc5c4cc3-c3ccccc3)cc2)CCC1 [MK-2206] | 71.40 | 127 nM |  | 95 nM | 0.64 | 86 nM | very strong synergy | very strong synergy | 
9 |  |  |  | CC[C@]1(O)C[C@H]2CN(CCc3c([nH]c4ccccc34)[C@@](C(=O)OC)(c3cc4c(cc3OC)N(C=O)[C@H]3[C@@](O)(C(=O)OC)[C@H](OC(C)=O)[C@]5(CC)C=CCN6CC[C@]43[C@@H]65)C2)C1 [Vincristine] |  |  |  |  |  |  | Additive | Additive | Summary of Combinations with Compound 44 (WSU-DLCL2 cells; listed as vincristine): Combination benefit; growth inhibition by the drug by itself (WSU-DLCL2 cells; single agent): concentration-dependent growth inhibition; Summary of Combinations with Compound 44 (SU-DHL6 cells): Additive; Summary of Combinations with Compound 44 (SU-DHL-10 cells; listed as vincristine): Combination benefit; growth inhibition by the drug by itself (SU-DHL-10 cells): concentration-dependent growth inhibition; Summary of Combinations with Compound 44 (Toledo cells): No effect; Summary of Combinations with Compound 44 (DOHH2 cells): No effect
10 |  |  |  | Rituximab: the antibody combined with chemotherapeutics in R-CHOP, targets cd-20 |  |  |  |  |  |  |  |  | 1/α (WSU-DLCL2 cells; WSU-DLCL2): 2.6; Potency (IC50), Rituximab (WSU-DLCL2 cells; WSU-DLCL2, single agent, after 3 days of dosing): >10^a μg/ml
11 | 39 nM | 47 nM | > 1000 nM | C[C@]12C=CC(=O)C=C1CC[C@@H]1[C@@H]2[C@@H](O)C[C@@]2(C)[C@H]1CC[C@]2(O)C(=O)CO [Prednisolone] | 4.2 |  | No effect | > 1000 nM | 9.5 | 133 nM | Synergy | Synergy | Summary of Combinations with Compound 44 (SU-DHL-5 cells; SU-DHL5 (EZH2 WT GCB), drug combined with Compound 44): Synergy; 1/α (SU-DHL-5 cells; SU-DHL-5): 7.6; Summary of Combinations with Compound 44 (OCI-LY19 cells; OCI-LY-19 (EZH2 WT GCB), drug combined with Compound 44): Synergy; H3K27Me3 levels (H3K27Me3 levels; OCI-LY19 cells): increase H3K27Me3 levels at higher doses; H3K27Me3 levels (H3K27Me3 levels; RL cells): no effect; H3K27Me3 levels (H3K27Me3 levels; WSU-DLCL2 cells): no effect; growth inhibition by the drug by itself (WSU-DLCL2 cells; single agent): no sensitivity; 1/α (WSU-DLCL2 cells; WSU-DLCL2): 9.7; Summary of Combinations with Compound 44 (SU-DHL6 cells): Synergy; growth inhibition by the drug by itself (SU-DHL-10 cells): no sensitivity; 1/α (SU-DHL-10 cells): 4.2; TSC22D3/GILZ expression [1]: up-regulated; Summary of Combinations with Compound 44 (Toledo cells): No effect; Summary of Combinations with Compound 44 (DOHH2 cells): Synergy; potency of the glucocorticoid agonist with addition of Compound 44 (DOHH2 cells; DOHH2 EZH2 wild-type cells): increased; global H3K27 acetylation levels (H3K27 acetylation levels): not affected
12 | 0.72 nM |  | 0.854 nM | CO[C@H]1C[C@@H]2CC[C@@H](C)[C@@](O)(O2)C(=O)C(=O)N2CCCC[C@H]2C(=O)O[C@H]([C@H](C)C[C@@H]2CC[C@@H](OCCO)[C@H](OC)C2)CC(=O)[C@H](C)/C=C(\C)[C@@H](O)[C@@H](OC)C(=O)[C@H](C)C[C@H](C)/C=C/C=C/C=C/1C [Everolimus] | No effect | 0.653 nM | No effect | 0.1 nM |  | 0.13 nM | very strong synergy | very strong synergy | 
13 | > 10000 nM | 131 nM | > 10000 nM | CC1(C)CCC(c2ccc(Cl)cc2)=C(CN2CCN(c3ccc(C(=O)NS(=O)(=O)c4ccc(N[C@H](CCN5CCOCC5)CSc5ccccc5)c(S(=O)(=O)C(F)(F)F)c4)cc3)CC2)C1 [Navitoclax] | 6.60 | 3540 nM | No effect | 590 nM |  | 540 nM |  |  | 1/α (SU-DHL-5 cells; SU-DHL-5): No Effect
14 | 9.8 nM | 42 nM | 19.5 nM | COC1=CC(c2cc3ccccc3[nH]2)=N/C1=C\c1[nH]c(C)cc1C [Obatoclax] | 1.50 | 59 nM |  | 96 nM |  | 51 nM |  |  | CI range (combination index) (SU-DHL-5 cells; SU-DHL-5, combination with Compound 44 at constant ratio, CI range above Fractional effect of 0.5): 1.26-1.61^e; CI range (combination index) (WSU-DLCL2 cells; WSU-DLCL2, combination with Compound 44 at constant ratio, CI range above Fractional effect of 0.5): 1.10^e; CI range (combination index) (SU-DHL-10 cells): 0.91-1.36^e

Row | Compound | IC50 (SU-DHL-5 cells) | IC50 (OCI-LY19 cells) | IC50 (SU-DHL-10 cells) | 1/α (OCI-LY19 cells) | IC50 (WSU-DLCL2 cells) | 1/α (Toledo cells) | IC50 (Toledo cells) | 1/α (DOHH2 cells) | IC50 (DOHH2 cells) | Summary of Combinations with Compound 44 (WSU-DLCL2 cells) | Summary of Combinations with Compound 44 (SU-DHL-10 cells) | other results
15 | C=CC(=O)N1CCC[C@@H](n2nc(-c3ccc(Oc4ccccc4)cc3)c3c(N)ncnc32)C1 [Ibrutinib] | 1330 nM | > 10000 nM | 1150 nM | No effect | 278 nM | No effect | > 10000 nM | 0.67 | 956 nM |  |  | 
